Experimental data published in ChEMBL document CHEMBL2439947, “Intermolecular interaction of voriconazole analogues with model membrane by DSC and NMR, and their antifungal activity using NMR based metabolic profiling” (2013).
≈ marks a conversion by molar mass, not a printed value. Calls of active or inactive are those of the source. The calls are words filed in the database; no cut-off is given here.

How the values were obtained:
[1] = system: Candida albicans; test: Antifungal activity against Candida albicans ATCC 10231 assessed as pyruvate level after 32 hrs by [1H] NMR spectroscopic analysis; format: functional
[2] = system: Candida albicans; test: Antifungal activity against Candida albicans ATCC 10231 assessed as acetate level after 32 hrs by [1H] NMR spectroscopic analysis; format: functional
[3] = system: Candida albicans; test: Antifungal activity against Candida albicans ATCC 10231 assessed as ethanol level after 32 hrs by [1H] NMR spectroscopic analysis; format: functional
[4] = system: Candida albicans; test: Antifungal activity against Candida albicans ATCC 10231 assessed as pyruvate level after 24 hrs by [1H] NMR spectroscopic analysis; format: functional
[5] = system: Candida albicans; test: Antifungal activity against Candida albicans ATCC 10231 assessed as acetate level after 24 hrs by [1H] NMR spectroscopic analysis; format: functional
[6] = system: Candida albicans; test: Antifungal activity against Candida albicans ATCC 10231 assessed as ethanol level after 24 hrs by [1H] NMR spectroscopic analysis; format: functional
[7] = system: Candida albicans; test: Antifungal activity against Candida albicans ATCC 10231 assessed as pyruvate level after 18 hrs by [1H] NMR spectroscopic analysis; format: functional
[8] = system: Candida albicans; test: Antifungal activity against Candida albicans ATCC 10231 assessed as acetate level after 18 hrs by [1H] NMR spectroscopic analysis; format: functional
[9] = system: Candida albicans; test: Antifungal activity against Candida albicans ATCC 10231 assessed as ethanol level after 18 hrs by [1H] NMR spectroscopic analysis; format: functional
[10] = system: Candida albicans; test: Antifungal activity against Candida albicans ATCC 10231 after 48 hrs by tube dilution method; format: functional; conditions: ATCC 10231, 48 h
[11] = system: Candida albicans; test: Antifungal activity against Candida albicans ATCC 10231 after 24 hrs by broth microdilution method; format: functional; conditions: ATCC 10231, 24 h
[12] = system: Lipid bilayer; test: Binding affinity to DPPC liposomes at 1:5 drug to DPPC liposome molar ratio by [13C] NMR spectroscopic analysis
[13] = system: Lipid bilayer; test: Binding affinity to DPPC liposomes at 1:2 to 1:10 drug to DPPC liposome molar ratio by [31P] NMR spectroscopic analysis
[14] = system: Lipid bilayer; test: Binding affinity to DPPC liposomes by 2D-NOESY spectroscopic analysis
[15] = system: Lipid bilayer; test: Binding affinity to DPPC liposomes assessed as melting temperature at 1:2 drug to DPPC liposome molar ratio by differential scanning calorimetric analysis
[16] = system: Lipid bilayer; test: Binding affinity to DPPC liposomes assessed as melting temperature at 1:5 drug to DPPC liposome molar ratio by differential scanning calorimetric analysis
[17] = system: Lipid bilayer; test: Binding affinity to DPPC liposomes assessed as melting temperature at 1:10 drug to DPPC liposome molar ratio by differential scanning calorimetric analysis
[18] = system: Lipid bilayer; test: Binding affinity to DPPC liposomes assessed as change in pre-transition temperature at 1:2 drug to DPPC liposome molar ratio by differential scanning calorimetric analysis
[19] = system: Lipid bilayer; test: Binding affinity to DPPC liposomes assessed as change in pre-transition temperature at 1:10 drug to DPPC liposome molar ratio by differential scanning calorimetric analysis
[20] = system: Lipid bilayer; test: Binding affinity to DPPC liposomes assessed as change in pre-transition temperature at 1:5 drug to DPPC liposome molar ratio by differential scanning calorimetric analysis
[21] = system: Lipid bilayer; test: Binding affinity to DPPC liposomes after 2 hrs by double reciprocal plot analysis
[22] = system: Lipid bilayer; test: Binding affinity to DPPC liposomes at 1:5 drug to DPPC liposome molar ratio by [1H] NMR spectroscopic analysis
[23] = system: Lipid bilayer; test: Binding affinity to DPPC liposomes after 2 hrs by spectrophotometric analysis relative to control

| SMILES | Activity [1] | Activity [2] | Activity [3] | Activity [4] | Activity [5] | Activity [6] | Activity [7] | Activity [8] | Activity [9] | MIC [10] | MIC [11] | Activity [12] | Activity [13] | Activity [14] | Tm [15] | Tm [16] | Tm [17] | Activity [18] | Activity [20] | Kapp [21] | other results |
| --- | --- | --- | --- | --- | --- | --- | --- | --- | --- | --- | --- | --- | --- | --- | --- | --- | --- | --- | --- | --- | --- |
| C[C@@H](c1ncncc1F)[C@](O)(Cn1cncn1)c1ccc(F)cc1F [VORICONAZOLE] | 1 µg/mL | 2 µg/mL | 1 µg/mL | 1 µg/mL | 2 µg/mL | 1 µg/mL | 1 µg/mL | 3 µg/mL | 2 µg/mL | 1 µg/mL (≈ 2.86 µM) | 1 µg/mL (≈ 2.86 µM) | Active | inactive | Active | 37.4 °C | 38.5 °C | 38.5 °C | Active | Active | 0.0543 M⁻¹ | Activity [19]: Active; Activity [22]: Active |
| COc1ccc(C(=O)O[C@@](Cn2cncn2)(c2ccc(F)cc2F)[C@@H](C)c2ncncc2F)cc1 [VORICONAZOLE P-METHOXY BENZOATE] | 1 µg/mL | 2 µg/mL | 2 µg/mL | 1 µg/mL | 3 µg/mL | 3 µg/mL | 2 µg/mL | 4 µg/mL | 3 µg/mL | 3 µg/mL (≈ 6.21 µM) | 3 µg/mL (≈ 6.21 µM) | Active | Active | Active | 38.3 °C | 39.1 °C | 39.2 °C | Active | Active | 1.16 M⁻¹ | Activity [19]: Active; Activity [23]: 50%; Activity [22]: Active |
| Cc1ccc(C(=O)O[C@@](Cn2cncn2)(c2ccc(F)cc2F)[C@@H](C)c2ncncc2F)cc1 [VORICONAZOLE TOLUATE] | 3 µg/mL | 5 µg/mL | 4 µg/mL | 3 µg/mL | 6 µg/mL | 5 µg/mL | 4 µg/mL | 6 µg/mL | 5 µg/mL | 5 µg/mL (≈ 10.7 µM) | 5 µg/mL (≈ 10.7 µM) | Active | Active | Active | 32.4 °C | 32.6 °C | 34 °C | Active | Active | 0.871 M⁻¹ | Activity [19]: Active; Activity [22]: Active |
| C[C@@H](c1ncncc1F)[C@@](Cn1cncn1)(OC(=O)c1ccccc1)c1ccc(F)cc1F [VORICONAZOLE BENZOATE] | 3 µg/mL | 4 µg/mL | 4 µg/mL | 3 µg/mL | 4 µg/mL | 4 µg/mL | 4 µg/mL | 6 µg/mL | 5 µg/mL | 4 µg/mL (≈ 8.82 µM) | 4 µg/mL (≈ 8.82 µM) | Active | Active | Active | 39.5 °C | 39.5 °C | 40.9 °C | Active | Active | 1.22 M⁻¹ | T [19]: 30.1 °C; Activity [22]: Active |
| C[C@@H](c1ncncc1F)[C@@](Cn1cncn1)(OC(=O)c1ccc([N+](=O)[O-])cc1)c1ccc(F)cc1F [VORICONAZOLE P-NITRO BENZOATE] | 5 µg/mL | 6 µg/mL | 7 µg/mL | 5 µg/mL | 7 µg/mL | 7 µg/mL | 5 µg/mL | 8 µg/mL | 8 µg/mL | 8 µg/mL (≈ 16.1 µM) | 7 µg/mL (≈ 14 µM) | Active | Active | Active | 59.6 °C | 60 °C | 60 °C | Active | Active | 0.505 M⁻¹ | Activity [19]: Active; Activity [22]: Active |
